Results from the NIST ThermoML archive (doi:10.1021/je101361u).

Assay: xn = mol fraction of the nth substance listed
Details: 101.3 kPa, Liquid, Vibrating tube method

CCOCCOCCOCC [diethylene glycol diethyl ether] + ClCCCl
mass density [kg/m3]
Details | 308.15 K | 313.15 K | 318.15 K | 323.15 K
x2 = 0 | – | – | – | 877.66
x2 = 0.0234 | – | 891.38 | 886.51 | 881.62
x2 = 0.0504 | – | 895.82 | 890.92 | 886
x2 = 0.0751 | – | 900.01 | 895.06 | 890.1
x2 = 0.1009 | – | 904.54 | 899.56 | 894.58
x2 = 0.1504 | – | 913.47 | 908.43 | 903.37
x2 = 0.2 | – | 923.09 | 917.97 | –
x2 = 0.2546 | – | 934.27 | 929.05 | –
x2 = 0.2999 | – | 944.04 | 938.75 | –
x2 = 0.35 | – | 955.6 | 950.21 | –
x2 = 0.4006 | – | 968.06 | 962.59 | –
x2 = 0.4502 | – | 981.1 | 975.52 | –
x2 = 0.5002 | 1000.88 | 995.21 | 989.52 | –
x2 = 0.5499 | 1016.02 | 1010.23 | 1004.42 | –
x2 = 0.6 | 1032.44 | 1026.51 | 1020.6 | –
x2 = 0.65 | 1050.11 | 1044.07 | 1038 | –
x2 = 0.6999 | 1069.3 | 1063.11 | 1056.9 | –
x2 = 0.7492 | 1089.67 | 1083.34 | 1077 | –
x2 = 0.8 | 1112.94 | 1106.44 | 1099.91 | –
x2 = 0.85 | 1137.96 | 1131.28 | 1124.57 | –
x2 = 0.9 | 1165.64 | 1158.75 | 1151.82 | –
x2 = 0.95 | 1196.36 | 1189.24 | 1182.08 | –
x2 = 0.975 | 1213.1 | 1205.85 | 1198.56 | –
